Measurements published in patent US10239873B2, “7-azaindole or 4,7-diazaindole derivatives as IKKϵ epsilon and TBK1 inhibitor and pharmaceutical composition comprising same” (GREEN CROSS CORPORATION, priority 2015, dated 2019).

Target: T1, TBK1 (Homo sapiens, UniProt Q9UHD2)
T1 construct: purchased Promega (Invitrogen is also named in the same bracket) V4158; PR8031B; V3991 (not assigned to the two kinases)
T1 sequence (Q9UHD2 1-729): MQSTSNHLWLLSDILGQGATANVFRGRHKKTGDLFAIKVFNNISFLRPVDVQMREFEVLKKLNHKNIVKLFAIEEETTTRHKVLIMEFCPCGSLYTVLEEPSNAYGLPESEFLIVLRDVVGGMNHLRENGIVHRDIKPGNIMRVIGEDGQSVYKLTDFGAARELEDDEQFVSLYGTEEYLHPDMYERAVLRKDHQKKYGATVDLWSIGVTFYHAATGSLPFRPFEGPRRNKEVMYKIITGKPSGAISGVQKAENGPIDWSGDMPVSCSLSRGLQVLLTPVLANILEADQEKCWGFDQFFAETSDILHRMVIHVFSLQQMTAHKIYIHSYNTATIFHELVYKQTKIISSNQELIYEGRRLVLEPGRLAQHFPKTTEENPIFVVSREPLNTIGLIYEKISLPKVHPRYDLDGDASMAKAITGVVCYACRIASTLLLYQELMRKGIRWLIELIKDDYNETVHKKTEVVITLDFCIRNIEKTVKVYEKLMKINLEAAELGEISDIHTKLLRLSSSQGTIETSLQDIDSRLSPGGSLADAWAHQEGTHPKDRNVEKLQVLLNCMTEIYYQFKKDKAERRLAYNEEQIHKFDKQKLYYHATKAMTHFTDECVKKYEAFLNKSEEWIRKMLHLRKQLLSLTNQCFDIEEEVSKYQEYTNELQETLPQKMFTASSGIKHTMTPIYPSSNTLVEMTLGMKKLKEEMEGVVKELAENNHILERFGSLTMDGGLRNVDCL
Assay: ADP-Glo Kinase Assay, inhibition activity on TBK1
Format: biochemical
Protocol: Inhibition activities on IKKϵ and TBK1 were evaluated using the compounds of Examples 1 to 250.
The inhibition activities on IKKϵ and TBK1 were measured by a luminometer, IKKϵ/TBK1 Kinase Enzyme System (Promega, Ca# V4158; Invitrogen, PR8031B, Promega, Ca# V3991) and ADP-Glo Kinase Assay using ADP-Glo™ Kinase Analysis Kit (Promega, Ca# V9101) and a kinase reaction buffer [40 mM Tris(pH 7.5), 20 mM MgCl2, 0.1 mg/mL BSA] in accordance with the manufacturer's protocol.

SMILES | IC50
CS(=O)(=O)c1ccc(-c2cnc3[nH]cc(C4=CCN(C(=O)NC5CCOC5)CC4)c3c2)cc1 (centres unmarked) [Example 82, 4-(5-(4-(Methylsulfonyl)phenyl)-1H-pyrrolo[2,3-b]pyridin-3-yl)-N-(tetrahydrofuran-3-yl)-5,6-dihydropyridine-1(2H)-carboxamide] | 35 nM
CN1CCN(Cc2ccc(-c3cnc4[nH]cc(C5=CCN(C(=O)NC6CCOC6)CC5)c4c3)s2)CC1 (centres unmarked) [Example 83, 4-(5-(5-((4-Methylpiperazin-1-yl)methyl)thiophen-2-yl)-1H-pyrrolo[2,3-b]pyridin-3-yl)-N-(tetrahydrofuran-3-yl)-5,6-dihydropyridine-1(2H)-carboxamide] | 13 nM
O=C(NC1CCOC1)N1CC=C(c2c[nH]c3ncc(-c4ccc(CN5CCOCC5)s4)cc23)CC1 (centres unmarked) [Example 84, 4-(5-(5-(Morpholinomethyl)thiophen-2-yl)-1H-pyrrolo[2,3-b]pyridin-3-yl)-N-(tetrahydrofuran-3-yl)-5,6-dihydropyridine-1(2H)-carboxamide] | 16 nM
COc1ccc(-c2cnc3[nH]cc(C4=CCN(C(=O)NN5CCCC5)CC4)c3c2)cc1OC [Example 85, 4-(5-(3,4-Dimethoxyphenyl)-1H-pyrrolo[2,3-b]pyridin-3-yl)-N-(pyrrolidin-1-yl)-5,6-dihydropyridine-1(2H)-carboxamide 2,2,2-trifluoroacetate] | 110 nM
COc1ccc(-c2cnc3[nH]cc(C4=CCN(C(=O)NC5CCCC5)CC4C)c3c2)cc1OC (centres unmarked) [Example 120, N-cyclopentyl-4-(5-(3,4-dimethoxyphenyl)-1H-pyrrolo[2,3-b]pyridin-3-yl)-5-methyl-5,6-dihydropyridine-1(2H)-carboxamide] | 84 nM
CC1CN(C(=O)NC2CCCC2)CC=C1c1c[nH]c2ncc(-c3ccc(S(N)(=O)=O)cc3)cc12 (centres unmarked) [Example 124, N-cyclopentyl-5-methyl-4-(5-(4-sulfamoylphenyl)-1H-pyrrolo[2,3-b]pyridin-3-yl)-5,6-dihydropyridine-1(2H)-carboxamide] | 51 nM
CCC1CN(C(=O)NC2CCCC2)CC=C1c1c[nH]c2ncc(-c3ccc(CN4CCOCC4)s3)cc12 (centres unmarked) [Example 128, N-cyclopentyl-5-ethyl-4-(5-(5-(morpholinomethyl)thiophen-2-yl)-1H-pyrrolo[2,3-b]pyridin-3-yl)-5,6-dihydropyridine-1(2H)-carboxamide] | 71 nM
COc1ccc(-c2cnc3[nH]cc(C4=C(C)CN(C(=O)NC5CCCC5)CC4)c3c2)cc1OC [Example 129, N-cyclopentyl-4-(5-(3,4-dimethoxyphenyl)-1H-pyrrolo[2,3-b]pyridin-3-yl)-3-methyl-5,6-dihydropyridine-1(2H)-carboxamide] | 240 nM
CC1=C(c2c[nH]c3ncc(-c4ccc(S(C)(=O)=O)cc4)cc23)CCN(C(=O)NC2CCCC2)C1 [Example 130, N-cyclopentyl-3-methyl-4-(5-(4-(methylsulfonyl)phenyl)-1H-pyrrolo[2,3-b]pyridin-3-yl)-5,6-dihydropyridine-1(2H)-carboxamide] | 550 nM
CC1=C(c2c[nH]c3ncc(-c4ccc(CN5CCOCC5)s4)cc23)CCN(C(=O)NC2CCCC2)C1 [Example 131, N-cyclopentyl-3-methyl-4-(5-(5-(morpholinomethyl)thiophen-2-yl)-1H-pyrrolo[2,3-b]pyridin-3-yl)-5,6-dihydropyridine-1(2H)-carboxamide] | 220 nM
CS(=O)(=O)c1ccc(-c2cnc3[nH]cc(C4=C(F)CN(C(=O)NC5CCCC5)CC4)c3c2)cc1 [Example 132, N-cyclopentyl-3-fluoro-4-(5-(4-(methylsulfonyl)phenyl)-1H-pyrrolo[2,3-b]pyridin-3-yl)-5,6-dihydropyridine-1(2H)-carboxamide] | 250 nM
COc1ccc(-c2cnc3[nH]cc(C4=C(F)CN(C(=O)NC5CCCC5)CC4)c3c2)cc1OC [Example 133, N-cyclopentyl-4-(5-(3,4-dimethoxyphenyl)-1H-pyrrolo[2,3-b]pyridin-3-yl)-3-fluoro-5,6-dihydropyridine-1(2H)-carboxamide] | 220 nM
CCOC(=O)N1CC=C(c2c[nH]c3ncccc23)CC1 [Example 135, Ethyl 4-(1H-pyrrolo[2,3-b]pyridin-3-yl)-5,6-dihydropyridine-1(2H)-carboxylate] | 1100 nM
CCCCCOC(=O)N1CC=C(c2c[nH]c3ncccc23)CC1 [Example 136, Pentyl 4-(1H-pyrrolo[2,3-b]pyridin-3-yl)-5,6-dihydropyridine-1(2H)-carboxylate] | 10600 nM
CCCOC(=O)N1CC=C(c2c[nH]c3ncccc23)CC1 [Example 137, Propyl 4-(1H-pyrrolo[2,3-b]pyridin-3-yl)-5,6-dihydropyridine-1(2H)-carboxylate] | 440 nM

Further lines, results first:

IC50 | SMILES
5200 nM | CCCCOC(=O)N1CC=C(c2c[nH]c3ncccc23)CC1 [Example 138, Butyl 4-(1H-pyrrolo[2,3-b]pyridin-3-yl)-5,6-dihydropyridine-1(2H)-carboxylate]
320 nM | CC(C)OC(=O)N1CC=C(c2c[nH]c3ncccc23)CC1 [Example 139, Isopropyl 4-(1H-pyrrolo[2,3-b]pyridin-3-yl)-5,6-dihydropyridine-1(2H)-carboxylate]
310 nM | O=C(OC1CCCC1)N1CC=C(c2c[nH]c3ncccc23)CC1 [Example 140, Cyclopentyl 4-(1H-pyrrolo[2,3-b]pyridin-3-yl)-3,6-dihydropyridine-1(2H)-carboxylate]
500 nM | CCC(C)OC(=O)N1CC=C(c2c[nH]c3ncccc23)CC1 (centres unmarked) [Example 141, sec-Butyl 4-(1H-pyrrolo[2,3-b]pyridin-3-yl)-5,6-dihydropyridine-1(2H)-carboxylate]
3000 nM | CCC(CC)OC(=O)N1CC=C(c2c[nH]c3ncccc23)CC1 [Example 142, Pentan-3-yl 4-(1H-pyrrolo[2,3-b]pyridin-3-yl)-5,6-dihydropyridine-1(2H)-carboxylate]
1000 nM | O=C(OC1CCCCC1)N1CC=C(c2c[nH]c3ncccc23)CC1 [Example 143, Cyclohexyl 4-(1H-pyrrolo[2,3-b]pyridin-3-yl)-5,6-dihydropyridine-1(2H)-carboxylate]
460 nM | COc1ccc(-c2cnc3[nH]cc(C4=CCN(C(=O)OC5CCCC5)CC4)c3c2)cc1OC [Example 144, Cyclopentyl 4-(5-(3,4-dimethoxyphenyl)-1H-pyrrolo[2,3-b]pyridin-3-yl)-5,6-dihydropyridine-1(2H)-carboxylate]
> 10000 nM | CC(C)OC(=O)N1CC=C(c2c[nH]c3ncc(-c4cccc(S(N)(=O)=O)c4)cc23)CC1 [Example 146, Isopropyl 4-(5-(3-sulfamoylphenyl)-1H-pyrrolo[2,3-b]pyridin-3-yl)-5,6-dihydropyridine-1(2H)-carboxylate]
110 nM | COc1ccc(-c2cnc3[nH]cc(C4=CCN(C(=O)OC(C)C)CC4)c3c2)cc1OC [Example 147, Isopropyl 4-(5-(3,4-dimethoxyphenyl)-1H-pyrrolo[2,3-b]pyridin-3-yl)-5,6-dihydropyridine-1(2H)-carboxylate]
30 nM | CC(C)OC(=O)N1CC=C(c2c[nH]c3ncc(-c4cccc(S(C)(=O)=O)c4)cc23)CC1 [Example 149, Isopropyl 4-(5-(3-(methylsulfonyl)phenyl)-1H-pyrrolo[2,3-b]pyridin-3-yl)-5,6-dihydropyridine-1(2H)-carboxylate]
36 nM | CC(C)OC(=O)N1CC=C(c2c[nH]c3ncc(-c4ccc(S(N)(=O)=O)cc4)cc23)CC1 [Example 150, Isopropyl 4-(5-(4-sulfamoylphenyl)-1H-pyrrolo[2,3-b]pyridin-3-yl)-5,6-dihydropyridine-1(2H)-carboxylate]
42 nM | CC(C)(C)OC(=O)N1CC=C(c2c[nH]c3ncc(-c4cccc(S(N)(=O)=O)c4)cc23)CC1 [Example 151, tert-Butyl 4-(5-(3-sulfamoylphenyl)-1H-pyrrolo[2,3-b]pyridin-3-yl)-5,6-dihydropyridine-1(2H)-carboxylate]
81 nM | CC(C)(C)OC(=O)N1CC=C(c2c[nH]c3ncc(-c4ccc(S(N)(=O)=O)cc4)cc23)CC1 [Example 152, tert-Butyl 4-(5-(4-sulfamoylphenyl)-1H-pyrrolo[2,3-b]pyridin-3-yl)-5,6-dihydropyridine-1(2H)-carboxylate]
800 nM | CC(C)(C)OC(=O)N1CC=C(c2c[nH]c3ncc(-c4ccc(CN5CCOCC5)s4)cc23)CC1 [Example 153, tert-Butyl 4-(5-(5-(morpholinomethyl)thiophen-2-yl)-1H-pyrrolo[2,3-b]pyridin-3-yl)-5,6-dihydropyridine-1(2H)-carboxylate]
